{
  "source": "paper PMC6835510",
  "about": "“Magnificamide, a β-Defensin-Like Peptide from the Mucus of the Sea Anemone Heteractis magnifica, Is a Strong Inhibitor of Mammalian α-Amylases” (Marine Drugs, 2019)",
  "key": {"[1]": {"system": "fungi, Gram-positive or Gram-negative bacteria", "assay": "Antimicrobial screening, overall", "assay_type": "cell-based", "settings": "1, 5, 10, 20 µM", "protocol": "(§1) The antimicrobial activity of r-magnificamide was tested against Gram-positive (Staphylococcus aureus ATCC 21027 and Bacillus subtilis ATCC6633), Gram-negative bacteria (Escherichia coli VKPM B-7935 and Pseudomonas aeruginosa ATCC 27853), and the fungus Candida albicans KMM 455 by the agar dilution method. Microbial strains were taken from the American Type Culture Collection (ATCC), Russian National Collection of Industrial Microorganisms (VKPM), and Collection of Marine Microorganisms (KMM) (Pacific Institute of Bioorganic Chemistry FEB RAS). To obtain a microbial lawn, 0.1 mL of a cell suspension (0.5 × 10^8 cells/mL) was uniformly distributed on agar surface in Petri dishes (15 g/L tryptic soy broth, 2 g/L bacto yeast extract, 1 g/L glucose, and 20 g/L agar for bacteria; for fungi 10 g/L of glucose was added). Wells with a diameter of 6 mm were punched into the agar and filled with 100 µL of the peptide solution at concentrations 1, 5, 10, and 20 µM. The plates were then incubated for 18 h at 37 °C for bacteria, and at 30 °C for the fungus. Minimum inhibitory concentration was determined by measuring the clear zone of inhibition around each well. All assays were performed independently three times."}, "Shaker IR": {"system": "Shaker IR", "assay": "Two-electrode voltage-clamp", "assay_type": "cell-based, Drosophila", "settings": "10 µM; insect channel; Xenopus laevis oocytes; 18–22 °C", "source_text": "For the expression of Nav channels (mammalian rNav1.2, rNav1.4, hNav1.5, mNav1.6 and hNav1.8 channels; the insect channel BgNav1 from Blattella germanica; and the auxiliary subunits rβ1, hβ1, and TipE) and Kv channels (mammalian rKv1.1, rKv1.2, hKv1.3, rKv1.4, rKv1.5, rKv1.6, rKv2.1, hKv3.1, rKv4.2, hKv10.1, and hERG; and Drosophila Shaker’s IR) in Xenopus laevis oocytes; the linearized plasmids were transcribed using the T7 or SP6 mMESSAGE-mMACHINE transcription kit (Ambion, Carlsbad, CA, USA). The harvesting of stage V–VI oocytes from anesthetized female Xenopus laevis frog was previously described. Oocytes were injected with 50 nL of cRNA at a concentration of 1 ng/nL using a microinjector (Drummond Scientific, Broomall, PA, USA). The oocytes were incubated in a solution containing 96-mM NaCl, 2-mM KCl, 1.8-mM CaCl2, 2-mM MgCl2, and 5-mM HEPES (pH 7.4), supplemented with 50 mg/L gentamycin sulfate.\nTwo-electrode voltage-clamp recordings were performed at room temperature (18–22 °C) using a Geneclamp 500 amplifier (Molecular Devices, Downingtown, PA, USA) controlled by a pClamp data acquisition system (Axon Instruments, Union City, CA, USA). Whole cell currents from oocytes were recorded 1–4 days after injection. […] All data were analyzed using pClamp Clampfit 10.0 (Molecular Devices, Downingtown, PA, USA) and Origin 7.5 software (Originlab, Northampton, MA, USA)."}, "[2]": {"system": "Bacillus subtilis ATCC6633", "assay": "Antimicrobial activity, agar dilution method", "assay_type": "cell-based", "settings": "1, 5, 10, 20 µM; 100 µL in 6 mm agar wells; 18 h, 37 °C; clear zone; three independent assays", "protocol": "as §1"}, "[3]": {"system": "Escherichia coli VKPM B-7935", "assay": "Antimicrobial activity, agar dilution method", "assay_type": "cell-based", "settings": "1, 5, 10, 20 µM; 100 µL in 6 mm agar wells; 18 h, 37 °C; clear zone; three independent assays", "protocol": "as §1"}, "[4]": {"system": "Staphylococcus aureus ATCC 21027", "assay": "Antimicrobial activity, agar dilution method", "assay_type": "cell-based", "settings": "1, 5, 10, 20 µM; 100 µL in 6 mm agar wells; 18 h, 37 °C; clear zone; three independent assays", "protocol": "as §1"}, "Candida albicans KMM 455": {"system": "Candida albicans KMM 455", "assay": "Antimicrobial activity, agar dilution method", "assay_type": "cell-based", "settings": "1, 5, 10, 20 µM; 100 µL in 6 mm agar wells; 18 h, 30 °C; clear zone; three independent assays", "protocol": "as §1"}, "[5]": {"system": "Pseudomonas aeruginosa ATCC 27853", "assay": "Antimicrobial activity, agar dilution method", "assay_type": "cell-based", "settings": "1, 5, 10, 20 µM; 100 µL in 6 mm agar wells; 18 h, 37 °C; clear zone; three independent assays", "protocol": "as §1"}},
  "note": "Bridge positions count the residues as written; N and C are the ends. Ends that are not written are not given here.",
  "data": [
    {"sequence": "SEGTSCYIYHGVYGICKAKCAEDMKAMAGMGVCEGDLCCYKTPW (disulfide 6-38, 16-33, 20-39) [r-magnificamide]", "values": [
      {"measurement": "Antimicrobial activity, overall", "setting": "[1]", "value": "did not reveal activity against fungi, Gram-positive or Gram-negative bacteria"},
      {"measurement": "Antimicrobial activity, overall", "setting": "[1]; listed as recombinant analog of magnificamide", "value": "does not show antimicrobial or channel modulating activities"},
      {"measurement": "Channel modulating activity, Shaker", "setting": "Shaker IR", "value": "Not active"},
      {"measurement": "Antimicrobial activity, B. subtilis", "setting": "[2]", "value": "Not active"},
      {"measurement": "Antimicrobial activity, E. coli", "setting": "[3]", "value": "Not active"},
      {"measurement": "Antimicrobial activity, S. aureus", "setting": "[4]", "value": "Not active"},
      {"measurement": "Antimicrobial activity, C. albicans", "setting": "Candida albicans KMM 455", "value": "Not active"},
      {"measurement": "Antimicrobial activity, P. aeruginosa", "setting": "[5]", "value": "Not active"}
    ]}
  ]
}
